This note sets out measurements from ChEMBL document CHEMBL1133531, “Carbonic anhydrase inhibitors: perfluoroalkyl/aryl-substituted derivatives of aromatic/heterocyclic sulfonamides as topical intraocular pressure-lowering agents with prolonged duration of action” (J Med Chem, 2000).

For one test, the target named is Carbonic anhydrase 1 (Homo sapiens, UniProt P00915).
Another test deals with T1, Carbonic anhydrase 4 (Bos taurus, UniProt Q95323).
T1 sequence (Q95323 whole entry): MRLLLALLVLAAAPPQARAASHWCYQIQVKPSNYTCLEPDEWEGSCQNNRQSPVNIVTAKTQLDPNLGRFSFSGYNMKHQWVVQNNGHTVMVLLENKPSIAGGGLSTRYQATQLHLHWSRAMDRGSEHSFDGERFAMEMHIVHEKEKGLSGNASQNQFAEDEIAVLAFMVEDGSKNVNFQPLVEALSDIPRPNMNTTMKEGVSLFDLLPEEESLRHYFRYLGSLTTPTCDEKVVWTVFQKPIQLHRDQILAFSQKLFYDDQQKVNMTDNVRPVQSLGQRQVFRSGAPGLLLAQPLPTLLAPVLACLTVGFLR

Carbonic anhydrase 1, sequence (P00915 whole entry): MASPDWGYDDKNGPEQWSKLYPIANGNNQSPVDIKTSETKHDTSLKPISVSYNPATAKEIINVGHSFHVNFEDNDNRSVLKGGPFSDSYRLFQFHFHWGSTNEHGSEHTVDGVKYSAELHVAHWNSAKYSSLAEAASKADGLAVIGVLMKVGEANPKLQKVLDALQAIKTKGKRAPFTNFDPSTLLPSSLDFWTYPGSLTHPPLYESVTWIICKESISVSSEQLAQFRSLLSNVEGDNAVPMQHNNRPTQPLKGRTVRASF
Description for Carbonic anhydrase 1: Inhibition of human recombinant carbonic anhydrase I (CA1)
Description for Carbonic anhydrase 4: Inhibition of bovine carbonic anhydrase IV (CA4) from bovine lung microsomes

For `NS(=O)(=O)c1ccc(NS(=O)(=O)C(F)(F)F)c(F)c1`, the results for the inhibition constant (Ki) on Carbonic anhydrase 1 and at Carbonic anhydrase 4 were 100000 nM and 29000 nM, respectively.
Consider `NS(=O)(=O)c1cc(S(N)(=O)=O)c(NS(=O)(=O)C(F)(F)C(F)(F)C(F)(F)C(F)(F)C(F)(F)C(F)(F)C(F)(F)C(F)(F)F)cc1Cl`, for which the values for the Ki at Carbonic anhydrase 1 and on Carbonic anhydrase 4 were 890 nM and 155 nM, respectively.
Consider `NS(=O)(=O)c1cccc(NS(=O)(=O)C(F)(F)F)c1`, for which the Ki (commonly the equilibrium dissociation constant of an inhibitor or competing ligand from its target) on Carbonic anhydrase 1 is 188000 nM; at Carbonic anhydrase 4, 95300 nM.
With `NS(=O)(=O)c1ccc(Nc2ccnc(NC(=O)c3c(F)c(F)c(F)c(F)c3F)n2)cc1`, the results for the Ki at Carbonic anhydrase 1 and on Carbonic anhydrase 4 were 7700 nM and 62 nM, respectively.
With `NS(=O)(=O)c1nc2ccc(OCCOS(=O)(=O)C(F)(F)F)cc2s1`, the inhibitory constant (Ki) stood at 50 nM at Carbonic anhydrase 1 and 7 nM on Carbonic anhydrase 4.
On to `NS(=O)(=O)c1nc2ccc(OCCOS(=O)(=O)C(F)(F)C(F)(F)C(F)(F)C(F)(F)C(F)(F)C(F)(F)C(F)(F)C(F)(F)F)cc2s1`, for which the figures for the Ki on Carbonic anhydrase 1 and at Carbonic anhydrase 4 were 17 nM and 5 nM, respectively.
Consider `NS(=O)(=O)c1cccc(NS(=O)(=O)c2ccc(NS(=O)(=O)C(F)(F)C(F)(F)C(F)(F)C(F)(F)F)cc2)c1`, for which the results for the Ki at Carbonic anhydrase 1 and on Carbonic anhydrase 4 were 4000 nM and 36 nM, respectively.
On the same counts, the results for `NS(=O)(=O)c1ccc(NS(=O)(=O)C(F)(F)C(F)(F)C(F)(F)C(F)(F)C(F)(F)C(F)(F)C(F)(F)C(F)(F)F)c(Br)c1` are 2550 nM and 12500 nM.
As to `NS(=O)(=O)c1ccc(COS(=O)(=O)C(F)(F)F)cc1`, the Ki at Carbonic anhydrase 1 is 135000 nM; on Carbonic anhydrase 4 it was 24100 nM.
For the compound `NS(=O)(=O)c1nnc(NC(=O)CCNS(=O)(=O)C(F)(F)C(F)(F)C(F)(F)C(F)(F)C(F)(F)C(F)(F)C(F)(F)C(F)(F)F)s1`, the values for the Ki at Carbonic anhydrase 1 and on Carbonic anhydrase 4 were 300 nM and 9 nM, respectively.
On the same counts, the results for `NS(=O)(=O)c1ccc(NC(=O)c2c(F)c(F)c(F)c(F)c2F)c(I)c1` are 2560 nM and 1040 nM.
As for `NS(=O)(=O)c1ccc(CNS(=O)(=O)C(F)(F)C(F)(F)C(F)(F)C(F)(F)F)cc1`, the values for the inhibition constant Ki on Carbonic anhydrase 1 and on Carbonic anhydrase 4 were 13000 nM and 255 nM, respectively.
Regarding `NS(=O)(=O)c1nnc(NS(=O)(=O)c2ccc(NS(=O)(=O)C(F)(F)F)cc2)s1`, the Ki at Carbonic anhydrase 1 turned out to be 1000 nM; at Carbonic anhydrase 4, 25 nM.
Take `NS(=O)(=O)c1ccc(NC(=O)c2c(F)c(F)c(F)c(F)c2F)c(F)c1`: the Ki stood at 760 nM on Carbonic anhydrase 1 and 185 nM on Carbonic anhydrase 4.
As to `NS(=O)(=O)c1nc2ccc(NC(=O)c3c(F)c(F)c(F)c(F)c3F)cc2s1`, the inhibition constant (Ki) at Carbonic anhydrase 1 was 120 nM; at Carbonic anhydrase 4, 8 nM.
As to `NS(=O)(=O)c1ccc(CCOS(=O)(=O)C(F)(F)F)cc1`, the inhibition constant (Ki) on Carbonic anhydrase 1 was found to be 80000 nM; at Carbonic anhydrase 4, 45000 nM.
With `NS(=O)(=O)c1ccc(NS(=O)(=O)c2c(F)c(F)c(F)c(F)c2F)c(F)c1`, the figures for the inhibitory constant (Ki) at Carbonic anhydrase 1 and on Carbonic anhydrase 4 were 710 nM and 140 nM, respectively.
On to `NS(=O)(=O)c1ccc(NNS(=O)(=O)C(F)(F)C(F)(F)C(F)(F)C(F)(F)F)cc1`, for which the Ki turned out to be 15000 nM on Carbonic anhydrase 1 and 600 nM at Carbonic anhydrase 4.
As for `NS(=O)(=O)c1nnc(NS(=O)(=O)C(F)(F)C(F)(F)C(F)(F)C(F)(F)C(F)(F)C(F)(F)C(F)(F)C(F)(F)F)s1`, the values for the inhibitory constant (Ki) at Carbonic anhydrase 1 and at Carbonic anhydrase 4 were 400 nM and 12 nM, respectively.
`NS(=O)(=O)c1cc(S(N)(=O)=O)c(NS(=O)(=O)C(F)(F)F)c(Cl)c1Cl`: the Ki stood at 5500 nM at Carbonic anhydrase 1 and 725 nM on Carbonic anhydrase 4.
On to `NS(=O)(=O)c1ccc(NC(=O)C(F)(F)C(F)(F)C(F)(F)C(F)(F)C(F)(F)C(F)(F)C(F)(F)C(F)(F)F)c(I)c1`, for which the results for the inhibition constant Ki on Carbonic anhydrase 1 and at Carbonic anhydrase 4 were 3000 nM and 680 nM, respectively.
Turning to `NS(=O)(=O)c1ccc(NS(=O)(=O)C(F)(F)F)c(I)c1`, the values for the inhibitory constant (Ki) on Carbonic anhydrase 1 and at Carbonic anhydrase 4 were 210000 nM and 49000 nM, respectively.
On the same counts, the results for `NS(=O)(=O)c1ccc(NS(=O)(=O)C(F)(F)C(F)(F)C(F)(F)C(F)(F)F)c(I)c1` are 23400 nM and 1040 nM.
For the compound `NS(=O)(=O)c1ccc(CCOC(=O)C(F)(F)C(F)(F)C(F)(F)C(F)(F)C(F)(F)C(F)(F)C(F)(F)C(F)(F)F)cc1`, the results for the Ki at Carbonic anhydrase 1 and on Carbonic anhydrase 4 were 20000 nM and 12000 nM, respectively.
